# Earlier results as cited in patent publication US20190358249A1, “Injectable Combination Products Of Fosaprepitant And 5-HT3 Blocker” (Navinta III Inc, priority 2018, published 2019).
# Entries after “also recorded” stand apart in the source; their conditions may differ. Counter-ions that a name gives are not always drawn.
# Key:
# [1] = test system: subjects receiving highly emetogenic cisplatin-based chemotherapy; conditions: added to ondansetron and dexamethasone
# [2] = 1% w/v in water
# [3] = precipitates when the pH is above the range
smiles,measurement,setting,value
C[C@@H](O[C@H]1OCCN(Cc2n[nH]c(=O)[nH]2)[C@H]1c1ccc(F)cc1)c1cc(C(F)(F)F)cc(C(F)(F)F)c1 [Aprepitant],solubility in water (in words),water,very low solubility; also recorded: minimal solubility; also recorded: practically insoluble
same,protection against CINV,[1],consistently superior protection
C[C@@H](O[C@H]1OCCN(Cc2nc(O)n(P(=O)(O)O)n2)[C@H]1c1ccc(F)cc1)c1cc(C(F)(F)F)cc(C(F)(F)F)c1 [Fosaprepitant],solubility in water (in words),water,good solubility
Cc1nccn1CC1CCc2c(c3ccccc3n2C)C1=O (stereo not drawn) [Ondansetron],pH of a 1% w/v solution in water,[2],about 4.6
same,solubility in saline,saline,0.8%
same,solubility in water,water,3.2%
same,pH above which free base precipitates,[3],5.7-7
O=C1c2cccc3c2[C@H](CCC3)CN1[C@@H]1CN2CCC1CC2 [Palonosetron Hydrochloride],solubility in aqueous media,across the physiological pH range,very soluble
same,solubility in water (in words),water,freely soluble
